ChEMBL document CHEMBL5584354, “Impact of Conjugation of the Reactive Oxygen Species (ROS)-Generating Catalytic Moiety with Membrane-Active Antimicrobial Peptoids: Promoting Multitarget Mechanism and Enhancing Selectivity” (J Med Chem, 2024)
Values after ≈ are worked out from the molar mass of the structure shown. Non-standard residues stand in square brackets, D forms with d. Residues, ends and D or L forms follow the SMILES beside them. *: point of attachment. X1 = NC(=O)[C@H](Cc1c[nH]cn1)NC(=O)CNC(=O)[C@@H](N)CN*; Gly(N(CH2)2(3-indolyl)) = O=C(O)CNCCc1c[nH]c2ccccc12; Nspe = C[C@H](NCC(=O)O)c1ccccc1; Nphe = O=C(O)CNCc1ccccc1; Nlys = NCCCCNCC(=O)O

Columns and labels:
[1] = Selectivity index, ratio of HC10 for hemolytic activity in male Sprague-Dawley rat erythrocytes to MIC for antibacterial activity against Escherichia coli ATCC 25922; assay type: toxicity; conditions: read-out: Selectivity Index
Staphylococcus aureus = experiment: Antibacterial activity against Staphylococcus aureus ATCC 25923 assessed as inhibition of bacterial growth incubated for 24 hrs by broth dilution method; assay type: functional
[2] = Hemolytic activity in male Sprague-Dawley rat erythrocytes at 50 uM incubated for 1 hr by absorbance based method relative to control; assay type: toxicity, cell-based, Erythrocyte; conditions: read-out: Activity
[3] = Hemolytic activity in male Sprague-Dawley rat erythrocytes assessed as concentration required for 50% hemolysis incubated for 1 hr by absorbance based method; assay type: toxicity, cell-based, Erythrocyte
Escherichia coli = experiment: Antibacterial activity against Escherichia coli ATCC 25922 assessed as inhibition of bacterial growth incubated for 24 hrs by broth dilution method; assay type: functional
[4] = Hemolytic activity in male Sprague-Dawley rat erythrocytes at 100 uM incubated for 1 hr by absorbance based method relative to control; assay type: toxicity, cell-based, Erythrocyte; conditions: read-out: Activity
[5] = Hemolytic activity in male Sprague-Dawley rat erythrocytes at 25 uM incubated for 1 hr by absorbance based method relative to control; assay type: toxicity, cell-based, Erythrocyte; conditions: read-out: Activity
Erythrocyte = experiment: Hemolytic activity in male Sprague-Dawley rat erythrocytes assessed as concentration required for 10% hemolysis incubated for 1 hr by absorbance based method; assay type: toxicity, cell-based

| MIC (Staphylococcus aureus) [µM] | MIC (Escherichia coli) [µM] | SMILES | selectivity ratio [1] | hemolysis at 1 h, 50 µM [2] [%] | HC50 at 1 h [3] [µM] | hemolysis at 1 h, 100 µM [4] [%] | hemolysis at 1 h, 25 µM [5] [%] | HC10 (Erythrocyte) [µM] |
| --- | --- | --- | --- | --- | --- | --- | --- | --- |
| 6.3 (≈ 12 µg/mL) | 12.5 (≈ 23.9 µg/mL) | C[C@@H](c1ccccc1)N(CC(N)=O)C(=O)CN(CCCCN)C(=O)CN(C(=O)CN(C(=O)CN(CCCCN)C(=O)CN(C(=O)CN(C(=O)CN(CCCCN)C(=O)CN(C(=O)CN(C(=O)CN(CCCCN)C(=O)[C@H](Cc1c[nH]cn1)NC(=O)CNC(=O)CN)[C@@H](C)c1ccccc1)[C@@H](C)c1ccccc1)[C@@H](C)c1ccccc1)[C@@H](C)c1ccccc1)[C@@H](C)c1ccccc1)[C@@H](C)c1ccccc1 (H-GGH[Nlys][Nspe][Nspe][Nlys][Nspe][Nspe][Nlys][Nspe][Nspe][Nlys][Nspe]-NH2) | 1.8 | 32 | 81.6 | 61.6 | 7.95 | 22.9 |
| 1.6 (≈ 3.35 µg/mL) | 12.5 (≈ 26.2 µg/mL) | C[C@@H](c1ccccc1)N(CC(N)=O)C(=O)CN(C(=O)CN(CCCCN)C(=O)CN(Cc1ccccc1)C(=O)CN(Cc1ccccc1)C(=O)CN(CCCCN)C(=O)CN(Cc1ccccc1)C(=O)CN(Cc1ccccc1)C(=O)CN(CCCCN)C(=O)CN(CCc1c[nH]c2ccccc12)C(=O)CN(CCc1c[nH]c2ccccc12)C(=O)CN(CCCCN)C(=O)[C@H](Cc1c[nH]cn1)NC(=O)CNC(=O)CN)[C@@H](C)c1ccccc1 (H-GGH[Nlys][Gly(N(CH2)2(3-indolyl))][Gly(N(CH2)2(3-indolyl))][Nlys][Nphe][Nphe][Nlys][Nphe][Nphe][Nlys][Nspe][Nspe]-NH2) | 1.3 | 25.5 | > 100 | 40.2 | 13.8 | 16.3 |
| 6.3 (≈ 13.3 µg/mL) | 25 (≈ 52.9 µg/mL) | C[C@@H](c1ccccc1)N(CC(N)=O)C(=O)CN(CCCCN)C(=O)CN(CCCCN)C(=O)CN(C(=O)CN(C(=O)CN(CCCCN)C(=O)CN(C(=O)CN(C(=O)CN(CCCCN)C(=O)CN(CCc1c[nH]c2ccccc12)C(=O)CN(CCc1c[nH]c2ccccc12)C(=O)CN(CCCCN)C(=O)[C@H](Cc1c[nH]cn1)NC(=O)CNC(=O)CN)[C@@H](C)c1ccccc1)[C@@H](C)c1ccccc1)[C@@H](C)c1ccccc1)[C@@H](C)c1ccccc1 (H-GGH[Nlys][Gly(N(CH2)2(3-indolyl))][Gly(N(CH2)2(3-indolyl))][Nlys][Nspe][Nspe][Nlys][Nspe][Nspe][Nlys][Nlys][Nspe]-NH2) | > 4 | 5.9 | > 100 | 6.4 | 4.98 | > 100 |
| 12.5 (≈ 24.2 µg/mL) | 12.5 (≈ 24.2 µg/mL) | C[C@@H](c1ccccc1)N(CC(=O)NC[C@H](N)C(=O)NCC(=O)N[C@@H](Cc1c[nH]cn1)C(N)=O)C(=O)CN(CCCCN)C(=O)CN(C(=O)CN(C(=O)CN(CCCCN)C(=O)CN(C(=O)CN(C(=O)CN(CCCCN)C(=O)CN(C(=O)CN(C(=O)CNCCCCN)[C@@H](C)c1ccccc1)[C@@H](C)c1ccccc1)[C@@H](C)c1ccccc1)[C@@H](C)c1ccccc1)[C@@H](C)c1ccccc1)[C@@H](C)c1ccccc1 (H-[Nlys][Nspe][Nspe][Nlys][Nspe][Nspe][Nlys][Nspe][Nspe][Nlys][Nspe]-X1) | 5 | 6.22 | > 100 | 19.1 | 0.04 | 62.6 |
| 25 (≈ 51.1 µg/mL) | > 25 | C[C@@H](c1ccccc1)N(CC(=O)N(CCCCN)CC(=O)N(CC(=O)N(CC(=O)N(CCCCN)CC(=O)N(CC(=O)N(CC(=O)NC[C@H](N)C(=O)NCC(=O)N[C@@H](Cc1c[nH]cn1)C(N)=O)Cc1ccccc1)Cc1ccccc1)[C@@H](C)c1ccccc1)[C@@H](C)c1ccccc1)C(=O)CN(C(=O)CN(CCCCN)C(=O)CN(Cc1ccccc1)C(=O)CN(Cc1ccccc1)C(=O)CNCCCCN)[C@@H](C)c1ccccc1 (H-[Nlys][Nphe][Nphe][Nlys][Nspe][Nspe][Nlys][Nspe][Nspe][Nlys][Nphe][Nphe]-X1) |  | 2.32 | > 100 | 7.73 | 0.66 | > 100 |

More lines, now with the values behind:

| SMILES | MIC (Staphylococcus aureus) [µM] | MIC (Escherichia coli) [µM] | selectivity ratio [1] | hemolysis at 1 h, 50 µM [2] [%] | HC50 at 1 h [3] [µM] | hemolysis at 1 h, 100 µM [4] [%] | hemolysis at 1 h, 25 µM [5] [%] | HC10 (Erythrocyte) [µM] |
| --- | --- | --- | --- | --- | --- | --- | --- | --- |
| C[C@@H](c1ccccc1)N(CC(=O)N(CCCCN)CC(=O)N(CC(=O)N(CC(=O)N(CCCCN)CC(=O)N(CC(=O)N(CC(=O)N(CCCCN)CC(=O)N(CCc1c[nH]c2ccccc12)CC(=O)N(CCc1c[nH]c2ccccc12)CC(N)=O)Cc1ccccc1)Cc1ccccc1)Cc1ccccc1)Cc1ccccc1)C(=O)CN(Cc1ccccc1)C(=O)CN(CCCCN)C(=O)[C@H](Cc1c[nH]cn1)NC(=O)CNC(=O)CN (H-GGH[Nlys][Nphe][Nspe][Nlys][Nphe][Nphe][Nlys][Nphe][Nphe][Nlys][Gly(N(CH2)2(3-indolyl))][Gly(N(CH2)2(3-indolyl))]-NH2) | 3.1 (≈ 6.44 µg/mL) | 12.5 (≈ 26 µg/mL) | 1.6 | 23.9 | > 100 | 40.6 | 12.7 | 20.6 |
| C[C@@H](c1ccccc1)N(CC(=O)N(CC(=O)N(CCCCN)CC(=O)N(CC(=O)N(CC(=O)N(CCCCN)CC(=O)N(CC(=O)N(CC(=O)N(CCCCN)CC(=O)N(CC(=O)N(CC(N)=O)Cc1ccccc1)Cc1ccccc1)Cc1ccccc1)Cc1ccccc1)Cc1ccccc1)Cc1ccccc1)Cc1ccccc1)C(=O)CN(CCCCN)C(=O)CNC(=O)[C@H](Cc1c[nH]cn1)NC(=O)CNC(=O)CN (H-GGHG[Nlys][Nspe][Nphe][Nlys][Nphe][Nphe][Nlys][Nphe][Nphe][Nlys][Nphe][Nphe]-NH2) | > 25 | 25 (≈ 50.7 µg/mL) |  | 0.18 | > 100 | 1.36 | -0.43 | > 100 |
| C[C@@H](c1ccccc1)N(CC(N)=O)C(=O)CN(CCCCN)C(=O)CN(Cc1ccccc1)C(=O)CN(Cc1ccccc1)C(=O)CN(CCCCN)C(=O)CN(C(=O)CN(C(=O)CN(CCCCN)C(=O)CN(Cc1ccccc1)C(=O)CN(Cc1ccccc1)C(=O)CN(CCCCN)C(=O)CNC(=O)[C@H](Cc1c[nH]cn1)NC(=O)CNC(=O)CN)[C@@H](C)c1ccccc1)[C@@H](C)c1ccccc1 (H-GGHG[Nlys][Nphe][Nphe][Nlys][Nspe][Nspe][Nlys][Nphe][Nphe][Nlys][Nspe]-NH2) | 25 (≈ 47.8 µg/mL) | 25 (≈ 47.8 µg/mL) | 2.3 | 6.84 | > 100 | 20.8 | 0.91 | 58.4 |
| C[C@@H](c1ccccc1)N(CC(N)=O)C(=O)CN(C(=O)CN(CCCCN)C(=O)CN(C(=O)CN(C(=O)CN(CCCCN)C(=O)CN(C(=O)CN(C(=O)CN(CCCCN)C(=O)CN(CCc1c[nH]c2ccccc12)C(=O)CN(CCc1c[nH]c2ccccc12)C(=O)CNCCCCN)[C@@H](C)c1ccccc1)[C@@H](C)c1ccccc1)[C@@H](C)c1ccccc1)[C@@H](C)c1ccccc1)[C@@H](C)c1ccccc1 | < 0.8 | 3.1 (≈ 5.88 µg/mL) | 2.5 | 55.3 | 63.6 | 73.9 | 33 | 7.9 |
| C[C@@H](c1ccccc1)N(CC(=O)N(CCCCN)CC(=O)N(CC(=O)N(CC(=O)N(CCCCN)CC(=O)N(CC(=O)N(CC(=O)N(CCCCN)CC(=O)N(CC(=O)N(CC(N)=O)Cc1ccccc1)Cc1ccccc1)Cc1ccccc1)Cc1ccccc1)Cc1ccccc1)Cc1ccccc1)C(=O)CN(Cc1ccccc1)C(=O)CN(CCCCN)C(=O)[C@H](Cc1c[nH]cn1)NC(=O)CNC(=O)CN (H-GGH[Nlys][Nphe][Nspe][Nlys][Nphe][Nphe][Nlys][Nphe][Nphe][Nlys][Nphe][Nphe]-NH2) | > 25 | 25 (≈ 49.3 µg/mL) |  | -0.22 | > 100 | 0.92 | -0.71 | > 100 |
| C[C@@H](c1ccccc1)N(CC(=O)NC[C@H](N)C(=O)NCC(=O)N[C@@H](Cc1c[nH]cn1)C(N)=O)C(=O)CN(CCCCN)C(=O)CN(CCCCN)C(=O)CN(C(=O)CN(C(=O)CN(CCCCN)C(=O)CN(C(=O)CN(C(=O)CN(CCCCN)C(=O)CN(CCc1c[nH]c2ccccc12)C(=O)CN(CCc1c[nH]c2ccccc12)C(=O)CNCCCCN)[C@@H](C)c1ccccc1)[C@@H](C)c1ccccc1)[C@@H](C)c1ccccc1)[C@@H](C)c1ccccc1 (H-[Nlys][Gly(N(CH2)2(3-indolyl))][Gly(N(CH2)2(3-indolyl))][Nlys][Nspe][Nspe][Nlys][Nspe][Nspe][Nlys][Nlys][Nspe]-X1) | 6.3 (≈ 13.5 µg/mL) | > 25 |  | 6.1 | > 100 | 5.26 | 4.93 | > 100 |
| C[C@@H](c1ccccc1)N(CC(=O)N(CCCCN)CC(=O)N(CCc1c[nH]c2ccccc12)CC(=O)N(CCc1c[nH]c2ccccc12)CC(=O)NC[C@H](N)C(=O)NCC(=O)N[C@@H](Cc1c[nH]cn1)C(N)=O)C(=O)CN(CCCCN)C(=O)CN(CCCCN)C(=O)CN(C(=O)CN(C(=O)CN(CCCCN)C(=O)CN(C(=O)CN(C(=O)CNCCCCN)[C@@H](C)c1ccccc1)[C@@H](C)c1ccccc1)[C@@H](C)c1ccccc1)[C@@H](C)c1ccccc1 (H-[Nlys][Nspe][Nspe][Nlys][Nspe][Nspe][Nlys][Nlys][Nspe][Nlys][Gly(N(CH2)2(3-indolyl))][Gly(N(CH2)2(3-indolyl))]-X1) | 6.3 (≈ 13.5 µg/mL) | > 25 |  | 4.23 | > 100 | 3.38 | 3.83 | > 100 |
